US7838516B2, “15 β-substituted steroids having selective estrogenic activity” (priority 2004, dated 2010)

Columns and labels:
[1] = system: Cynomolgus monkey uterine tissue (endometrium); test: Histopathological evaluation of Cynomolgus monkey uterine tissue after 8 week oral treatment; format: in vivo; conditions: 8 weeks, average score per category, grades 0-5
Method: Histopathological evaluation of Cynomolgus monkey uterine tissue was performed by a pathologist after an 8 week oral treatment with the test compound in four animals per treatment group. […] The following morphological characteristics were examined in H&E stained sections, based on the uterine phases of the normal menstrual cycle in Cynomolgus monkeys. • A. Follicular phase-like changes: • loose endometrial stroma • straight endometrial glands • hypertrophy of endometrial epithelium • mitotic figures • hypertrophy of myometrium • early angiogenesis (sprouting or early proliferation) • basal secretion • B. Luteal phase-like changes • pseudodecidually enlarged stromal cells • coiling of endometrial glands • late angiogenesis (spiral artery formation) • vacuolation of endometrial epithelium • luminal secretion • C. Ovariectomized or non-stimulated (atrophic) endometrium • compact endometrial stroma • atrophy of endometrial epithelium • atrophy of endometrial glands • atrophy of myometrium The severity of each of these above-mentioned findings was scored using a scale of grading: • grade 0: finding not present • grade 1: minimal, very few, very small • grade 2: slight, few, small • grade 3: moderate, moderate number, moderate size • grade 4: marked, many, large • grade 5: massive, extensive number, extensive size For each animal this grading was done. Then the average score per treatment group was calculated for each characteristic. Finally, an average score per category, atrophic, follicular- or luteal phase-like, was calculated from the average individual characteristics. A favourable endometrial safety profile for a compound is characterized by less compound-induced follicular phase-like activity combined with more luteal phase-like characteristics and/or atrophic endometrium.

[2] = molecular target: T1, human estrogen receptor α (hERα) (Homo sapiens, UniProt P03372); test: In vitro bioassay of estrogenic agonistic transactivation in recombinant CHO cells (hERα, rat oxytocin promoter, luciferase reporter); format: cell-based
T1 sequence (P03372 1-595): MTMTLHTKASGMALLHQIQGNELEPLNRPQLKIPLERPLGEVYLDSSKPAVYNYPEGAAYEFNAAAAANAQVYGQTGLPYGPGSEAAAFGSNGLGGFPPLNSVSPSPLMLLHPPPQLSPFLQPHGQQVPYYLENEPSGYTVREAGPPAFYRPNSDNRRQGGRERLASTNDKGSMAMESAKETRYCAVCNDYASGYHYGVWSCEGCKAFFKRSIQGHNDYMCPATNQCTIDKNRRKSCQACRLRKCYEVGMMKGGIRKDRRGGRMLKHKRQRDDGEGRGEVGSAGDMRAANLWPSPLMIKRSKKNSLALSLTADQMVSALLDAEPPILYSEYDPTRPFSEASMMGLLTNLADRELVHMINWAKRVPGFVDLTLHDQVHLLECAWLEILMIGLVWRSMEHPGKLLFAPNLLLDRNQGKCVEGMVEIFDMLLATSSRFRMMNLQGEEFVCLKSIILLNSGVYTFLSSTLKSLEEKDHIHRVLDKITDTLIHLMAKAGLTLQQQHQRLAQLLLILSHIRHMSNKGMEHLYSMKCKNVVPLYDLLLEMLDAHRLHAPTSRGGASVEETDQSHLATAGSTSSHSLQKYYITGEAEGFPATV
Method: (§1) The agonistic activity of compounds on the estrogen receptors was determined in an in vitro bioassay with recombinant Chinese hamster ovary (CHO) cells stably co-transfected with the human estrogen receptor α (hERα) or β (hERβ), the rat oxytocin promoter (RO) and the luciferase reporter gene (LUC). […] A more detailed description of the methodology can be found in De Gooyer M. E., Deckers G. H., Schoonen W. G. E. J., Verheul H. A. M. and Kloosterboer H. J., Steroids, Vol. 68, 2003, pp. 21-30.
(§2) ERα/ERβ selectivity is defined as the ratio ERα-potency/ERβ-potency.

[3] = molecular target: human estrogen receptor β (hERβ) (Homo sapiens, UniProt Q92731); test: In vitro bioassay of estrogenic agonistic transactivation in recombinant CHO cells (hERβ, rat oxytocin promoter, luciferase reporter); format: cell-based
Method: as §1, §2

[4] = system: progesterone-induced lordosis behavior in female ovariectomised rats; test: Facilitation of progesterone-induced lordosis behavior in female ovariectomised rats; format: in vivo, rat; conditions: oral dosing at 1 mg/kg.day, three days pre-treatment, then progestagen
Text: Rat female sexual behavior is hormone dependent. In estrogen-primed female rats progesterone clearly enhances female sexual or lordosis behavior. However, progesterone is not effective in inducing lordosis in ovariectomised females that have not received estrogen (see also J. B. Becker, S. M. Breedlove and D. Crews (Eds.), Behavioral Endocrinology, 1992, pp. 82-84).
Females were pre-treated for three days with test compound followed by treatment with a progestagen on the fourth day. Four hours after progesterone treatment sexual behavior of the female rat was measured in the presence of a male rat by counting the number of lordosis responses during 10 minutes.

[5] = relative to 17β-estradiol: (EC50 17β-estradiol/EC50 test compound)×100%, CHO cells, luciferase

human estrogen receptor β (hERβ), sequence (Q92731 whole entry): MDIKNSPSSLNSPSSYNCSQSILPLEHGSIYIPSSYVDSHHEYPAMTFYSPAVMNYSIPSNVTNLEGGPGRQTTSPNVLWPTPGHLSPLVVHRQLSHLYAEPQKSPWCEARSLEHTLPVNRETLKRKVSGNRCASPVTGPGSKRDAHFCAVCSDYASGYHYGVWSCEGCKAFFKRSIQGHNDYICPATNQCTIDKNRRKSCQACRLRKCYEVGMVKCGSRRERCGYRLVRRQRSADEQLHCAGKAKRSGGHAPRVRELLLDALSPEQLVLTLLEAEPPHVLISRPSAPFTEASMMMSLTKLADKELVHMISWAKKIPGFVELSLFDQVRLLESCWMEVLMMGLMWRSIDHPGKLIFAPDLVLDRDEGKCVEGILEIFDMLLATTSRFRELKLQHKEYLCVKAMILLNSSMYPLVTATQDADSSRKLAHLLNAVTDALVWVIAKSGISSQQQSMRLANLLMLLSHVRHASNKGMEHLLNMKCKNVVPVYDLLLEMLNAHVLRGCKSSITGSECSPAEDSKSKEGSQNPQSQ

| SMILES | Monkey Endometrial profile (scores): Atrophic ([1]; 40 μg/kg once daily oral) | Monkey Endometrial profile (scores): Follicular ([1]; 40 μg/kg once daily oral) | Monkey Endometrial profile (scores): Luteal ([1]; 40 μg/kg once daily oral) | ERα/ERβ-selectivity (potency) ([2]; ratio ERα-potency/ERβ-potency) | ERα-potency (%) [2, 5] [%] | agonist character at the estrogen β-receptor ([3]; in words) | ERβ-efficacy (%) ([3]; maximal activation relative to maximal activation by 17β-estradiol) | ERβ-potency (%) [3, 5] [%] | Monkey Endometrial profile (scores): Atrophic ([1]; 200 μg/kg once daily oral) | Monkey Endometrial profile (scores): Follicular ([1]; 200 μg/kg once daily oral) | Monkey Endometrial profile (scores): Luteal ([1]; 200 μg/kg once daily oral) | in vivo estrogenic activity (facilitation of lordosis) [4] |
| --- | --- | --- | --- | --- | --- | --- | --- | --- | --- | --- | --- | --- |
| C#C[C@]1(O)CC[C@H]2[C@@H]3CCc4cc(O)ccc4[C@H]3CC[C@@]21C [Compound X, 17α-ethynyl-17β-estradiol, reference compound] | 0 | 2.8 | 0.4 | – | – | – | – | – | – | – | – | – |
| C#C[C@]1(O)C[C@@H](C)[C@H]2[C@@H]3[C@H](CC)Cc4cc(O)ccc4[C@H]3CC[C@@]21C [Compound 8, 7α-ethyl-15β-methyl-19-nor-17α-pregna-1,3,5(10)-trien-20-yne-3,17β-diol] | 3.0 | 0.0 | 0.0 | 15.2 | 23.45 | partial agonist | 40 | 1.54 | 2.3 | 0.5 | 0.2 | – |
| C#CC1(O)CC(C)C2C3C(CC)Cc4cc(OC(=O)C(C)(C)C)ccc4C3CCC21C (stereo not drawn) [Compound 9a, 3-pivaloyloxy-7α-ethyl-15β-methyl-19-nor-17α-pregna-1,3,5(10)-trien-20-yne-17β-ol] | – | – | – | – | – | – | – | – | – | – | – | active estrogenic compounds |
| C[C@]12CC[C@@H]3c4ccc(O)cc4CC[C@H]3[C@@H]1CC[C@@H]2O [Compound Y, 17β-estradiol, reference compound] | – | – | – | – | – | – | – | – | 0 | 3.6 | 0.2 | – |
